Patent publication US9289503B2, “Fatty acid fumarate derivatives and their uses” (Catabasis Pharmaceuticals, Inc., priority 2010, dated 2016)
Structures can show the parent of a compound that is named as a salt.

Tested on: NF-κB
Experiment: NF-κB luciferase reporter assay in RAW 264.7 macrophages
Type: cell-based
Details: RAW 264.7 cells with 3× NFκB response element luciferase reporter, 2 hour pretreatment, 200 ng/ml LPS for 3 hours; for IC50: Mus musculus, RAW264.7, read-out: NF-kB inhibitory activity
Experimental: RAW 264.7 cells stably expressing a 3× NFκB response elemement-drive luciferase reporter were seeded into 96 well plates in sera-free medium (Optimem) 18 hours prior to compound application. Compounds of the invention were prepared by first making […] stock solutions in EtOH. Stock solutions were then diluted 1:100 in low LPS FBS (Gemini BenchMark 100-106), mixed vigorously and allowed to incubate at room temperature for 30 minutes, 1:2 serial dilutions were then made in FBS supplemented with 1% EtOH, mixed vigorously, and again allowed to incubate at room temperature for 30 minutes before adding to RAW 264.7 reporter cells (final concentrations: 10% FBS, 100 uM highest compound dilution, 0.1% EtOH) for a 2 hour pretreatment prior to stimulation with LPS. Cells were then stimulated with 200 ng/ml LPS or vehicle control for 3 hours in the presence of the compounds of the invention. A set of six vehicles was left unstimulated with LPS in order to measure the assay floor. AlamarBlue viability dye (Invitrogen) was added to cells simultaneously with the delivery of LPS (final AlamarBlue concentration of 10%). After the 3 h incubation period with LPS, cell viability was measured by reading fluorescence (excitation 550 nm, emission 595 nm) with a Perkin Elmer Victor V plate reader. Then cell media was aspirated from each well. Luciferase signal was then developed by addition of the Britelite Plus reagent (Perkin Elmer). Luciferase activity was measured with the Perkin Elmer Victor V plate reader. NF-κB activity was expressed as a percent of the vehicle control wells (stimulated with LPS). Compounds were tested at 6 dose point titrations in triplicate to determine IC50 values.
Table 1 summarizes the IC50 values for a number of fatty acid fumarate conjugates in this NF-κB luciferase reporter assay. In this table, MMF=mono methyl fumarate.

Compound	IC50 [µM]	NF-kB inhibitory activity
CC/C=C\C/C=C\C/C=C\C/C=C\C/C=C\C/C=C\CCC(=O)NCCN1C(=O)CC(SC[C@H](NC(=O)/C=C/C(=O)OC)C(=O)OC)C1=O (stereo partly drawn) [Compound I-39, (E)-methyl 4-((R)-3-(1-(2-(4Z,7Z,10Z,13Z,16Z,19Z)-docosa-4,7,10,13,16,19-hexaenamidoethyl)-2,5-dioxopyrrolidin-3-ylthio)-1-methoxy-1-oxopropan-2-ylamino)-4-oxobut-2-enoate]	50 to 200	–
CC/C=C\C/C=C\C/C=C\C/C=C\C/C=C\C/C=C\CCC(=O)N1C[C@@H](C)N(C(=O)/C=C/C(=O)OC)[C@@H](C)C1 [Compound I-41, (E)-methyl 4-((2R,6S)-4-((4Z,7Z,10Z,13Z,16Z,19Z)-docosa-4,7,10,13,16,19-hexaenoyl)-2,6-dimethylpiperazin-1-yl)-4-oxobut-2-enoate]	50 to 200	–
CC/C=C\C/C=C\C/C=C\C/C=C\C/C=C\C/C=C\CCC(=O)NCC(C)(C)NC(=O)/C=C/C(=O)OC [Compound I-22]	–	+ +
CC/C=C\C/C=C\C/C=C\C/C=C\C/C=C\C/C=C\CCC(=O)NCCOC(=O)/C=C/C(=O)OC [Compound I-103, 2-(4Z,7Z,10Z,13Z,16Z,19Z)-docosa-4,7,10,13,16,19-hexaenamidoethyl methyl fumarate]	50 to 200	–
CC/C=C\C/C=C\C/C=C\C/C=C\C/C=C\C/C=C\CCC(=O)NCCN(C)CCNC(=O)/C=C/C(=O)OC [Compound I-4, (E)-methyl 4-(2-((2-(4Z,7Z,10Z,13Z,16Z,19Z)-docosa-4,7,10,13,16,19-hexaenamidoethyl)(methyl)amino)ethylamino)-4-oxobut-2-enoate]	–	+ +
CC/C=C\C/C=C\C/C=C\C/C=C\C/C=C\C/C=C\CCC(=O)NCCNC(=O)/C=C/C(=O)OC [Compound I-67]	–	+ +
CC/C=C\C/C=C\C/C=C\C/C=C\C/C=C\C/C=C\CCC(=O)NCCNC(=O)/C=C/C(=O)OCC [Compound I-66, (E)-ethyl 4-(2-(4Z,7Z,10Z,13Z,16Z,19Z)-docosa-4,7,10,13,16,19-hexaenamidoethylamino)-4-oxobut-2-enoate]	50 to 200	–
CC/C=C\C/C=C\C/C=C\C/C=C\C/C=C\CCCC(=O)N[C@@H](CCCCNC(=O)/C=C/C(=O)OC)C(=O)O [Compound I-72, (S)-2-((5Z,8Z,11Z,14Z,17Z)-icosa-5,8,11,14,17-pentaenamido)-6-((E)-4-methoxy-4-oxobut-2-enamido)hexanoic acid]	50 to 200	–
CC/C=C\C/C=C\C/C=C\C/C=C\C/C=C\C/C=C\CCC(=O)N(C)CCN(C)C(=O)/C=C/C(=O)OC [Compound I-104, (E)-methyl 4-(methyl(2-((4Z,7Z,10Z,13Z,16Z,19Z)-N-methyldocosa-4,7,10,13,16,19-hexaenamido)ethyl)amino)-4-oxobut-2-enoate]	≥ 100	–
CC/C=C\C/C=C\C/C=C\C/C=C\C/C=C\C/C=C\CCC(=O)NCCOCCNC(=O)/C=C/C(=O)OC [Compound I-3, (E)-methyl 4-(2-(2-(4Z,7Z,10Z,13Z,16Z,19Z)-docosa-4,7,10,13,16,19-hexaenamidoethoxy)ethylamino)-4-oxobut-2-enoate]	–	+ +
CC/C=C\C/C=C\C/C=C\C/C=C\C/C=C\C/C=C\CCC(=O)N1CCN(C(=O)/C=C/C(=O)OC)CC1 [Compound I-40, (E)-methyl 4-(4-(4Z,7Z,10Z,13Z,16Z,19Z)-docosa-4,7,10,13,16,19-hexaenoylpiperazin-1-yl)-4-oxobut-2-enoate]	–	+ +
CC/C=C\C/C=C\C/C=C\C/C=C\C/C=C\C/C=C\CCC(=O)NCCNC(=O)/C=C/C(=O)O [Compound I-102, (E)-4-(2-(4Z,7Z,10Z,13Z,16Z,19Z)-docosa-4,7,10,13,16,19-hexaenamidoethylamino)-4-oxobut-2-enoic acid]	≥ 100	–
CC/C=C\C/C=C\C/C=C\C/C=C\C/C=C\CCCC(=O)NCCNC(=O)/C=C/C(=O)OC [Compound I-2, (E)-methyl 4-(2-(5Z,8Z,11Z,14Z,17Z) -eicosa-5,8,11,14,17-pentaenamidoethylamino)-4-oxobut-2-enoate]	–	+ +
